Test results published in US20240016734A1 (Aquestive Therapeutics, Inc., priority 2022, published 2024).
Marks after values point to notes of the source that are not given here.

Columns and labels:
[1] = type: in vitro ADME, porcine; conditions: pig, 360 min
Text: FIG. 41B depicts a comparison of individual adrenergic receptor interacters in terms of amount permeated as a function of time.
FIG. 41C depicts ex vivo permeation as a function of time of different adrenergic receptor interacters in DESF compositions. The ex-vivo permeation in this example involved the exposure of porcine buccal tissue to formulations varying with regard to permeation enhancer(s) used and API concentration. […] Amount permeated increases with eugenol content, where eugenol contents in both test formulations were lower than that used in the control.
Ex-vivo permeation involved the exposure of porcine buccal tissue to formulations varying with regard to permeation enhancer(s) used and API concentration. […] Amount permeated increased with eugenol content, where eugenol contents in both test formulations were lower than that used in the control.

[2] = Ex vivo permeation of epinephrine, Franz diffusion cell
Procedure: A franz diffusion cell is obtained and prepared.
If testing films, one can perform the following next steps: (1) weigh films, punch to match diffusion area (or smaller), reweigh, record pre- and post-punching weight; (2) wet a donor area with approximately 100 μL of phosphate buffer; (3) place film on a donor surface, top with 400 μL of phosphate buffer, and start timers.
The tissue is dermatomed to precise thickness. • 4. […] The media is selected to ensure sink conditions. • 5.

[3] = concentration ranges explored
Text: In this example, acidic conditions were explored for the ability to promote stability.

[4] = modified Ussing chambers; cited from earlier work
[5] = in PBS (pH 7.4) at 37°±1° C., n=6; cited from earlier work
[6] = AQST-109 12 mg residence time / food / swallowed film PK study; type: in vivo, human; conditions: for Cmax / AUC(0-t): AQST-109 12 mg (N = 48 doses), Epinephrine IM Injection 0.3 mg (N = 48 doses)
Procedure: In this example, three different residence times were tested. The 4 minute residence time is shown in circle data points. The 2 minute residence time is shown in downward pointing triangle data points. The 0 minute residence time is shown in upward pointing triangle data points.
The purpose of this investigation was to continue to study the administration of the film under a variety of conditions and further characterize its pharmacokinetics, pharmacodynamics, and safety. The final two arms of the study were designed to assess the impact of (1) administering the film sublingually two minutes after consuming food—in this case, a peanut butter sandwich, and (2) swallowing the film whole immediately with 240 mL of water. The control arm used for reference was the optimized sublingual film administration with a four-minute residence time.

[7] = AQST-109 single and repeat dose PK vs EpiPen and 0.3 mg IM (AQ109201); type: in vivo, human; conditions: for AUC(0-t) / Cmax / Tmax: human, plasma, intramuscular, 0.3 mg
Procedure: Referring to FIG. 35, the study was a controlled study in healthy volunteers. […] However, the need and use of a second dose can be quite rare. […] Within this context, a post hoc analysis was performed.

[8] = AQ109201 safety, adverse events; type: in vivo, human
[9] = Pilot PK study of auto-injectors vs 0.3 mg manual IM injection; type: in vivo; conditions: human, plasma, intramuscular, 27 healthy subjects, crossover
in vivo = experiment: in vivo
Procedure: The study compared various dose routes: sublingual (SL), per oral tablet (PO), subcutaneous (SC) and intravenous (IV). […] An Oral Irritation assessment was performed (SL film group): Predose (0) and 24 hr postdose by Draize scoring.

[10] = single dose: 12 mg, 0.3 mg, EpiPen

`Cc1ccc(C(C)(C)O)cc1` [cherry propanol, 2-(4-methylphenyl)propan-2-ol] showed an amount permeated [1] of 0 to 50 µg.

With `C=CCc1ccc(O)c(OC)c1` [eugenol] the amount permeated [1] was 50 to 275 µg.

In the case of `CNC[C@H](O)c1ccc(O)c(O)c1` [Epinephrine Bitartrate], the “permeation as a function of solution pH” value [2] is reported as “slightly favorable”, the Theoretical enhancement ([2]; 8 mg/mL) is reported as 2 and the Theoretical enhancement ([2]; 16 mg/mL) is reported as 4. It also gave a Theoretical enhancement ([2]; 100 mg/mL) of 25, an average amount permeated ([2]; 30 min, 16 mg/mL) of 0 and an average flux ([2]; 30 min, 16 mg/mL) of 0 μg/cm^2 * min. The average amount permeated ([2]; 45 min, 16 mg/mL) was 2.5, the average flux ([2]; 45 min, 16 mg/mL) was 0.2604 μg/cm^2 * min and the average amount permeated ([2]; 60 min, 16 mg/mL) was 5.5. For the same compound, the average flux ([2]; 60 min, 16 mg/mL) was 0.3125 μg/cm^2 * min, the average amount permeated ([2]; 120 min, 16 mg/mL) was 31.33 and the average flux ([2]; 120 min, 16 mg/mL) was 0.6727 μg/cm^2 * min. The average amount permeated ([2]; 180 min, 8 mg/0.500 mL) was 72.67, the average flux ([2]; 180 min, 8 mg/mL) was 1.076 μg/cm^2 * min and the average amount permeated ([2]; 240 min, 16 mg/mL) was 112.2. The average flux ([2]; 240 min, 16 mg/mL) was 1.029 μg/cm^2 * min, the average amount permeated ([2]; 300 min, 16 mg/mL) was 160.2 and the average flux ([2]; 300 min, 16 mg/mL) was 1.25 μg/cm^2 * min. The “Average Steady State Flux” value ([2]; 360 min, 4 mg/mL) was 0.167 ug/cm^2*min, the “Average Steady State Flux” value ([2]; 360 min, 8 mg/mL) was 0.466 ug/cm^2*min and the average amount permeated ([2]; 360 min, 16 mg/mL) was 213.3. For the same compound, the average flux ([2]; 360 min, 16 mg/mL) was 1.385 μg/cm^2 * min, the “steady state flux average” value ([2]; 360 min, 16 mg/mL) was 1.317 and the “Average Steady State Flux” value ([2]; 360 min, 100 mg/mL) was 2.942 ug/cm^2*min. For the same compound, the “inherent pH in solution” value [3] was 4.5-5.

In the case of `C=CCc1ccc(O)c(OC)c1` [3% Eugenol], the “Permeability Coefficient” value [2] is reported as 7.43 ×10⁻⁶ cm/s.

In the case of `C=CCc1ccc(O)c(OC)c1` [0.3% Eugenol], the “Permeability Coefficient” value [2] is reported as 4.14 ×10⁻⁶ cm/s.

Work on `OCc1ccccc1` [benzyl alcohol] yielded an amount permeated [1] of 50 to 100 µg.

In the case of `Cn1c(=O)c2c(ncn2C)n(C)c1=O` [caffeine], the “permeability through buccal epithelium compared with full thickness buccal tissue” value [4] is given as 1.8 fold.

In the case of `CNC[C@H](O)c1ccc(O)c(O)c1` [Epinephrine Base], the “Average Steady State Flux” value ([2]; conc 4.4 mg/mL, solubilized in situ) is reported as 0.512 ug/cm^2*min.

In the case of `CC(C)NCC(O)COc1cccc2ccccc12` (stereo not shown) [PP], the “C0 of saturated solution” value [5] is listed as 588.005 ± 5.852 ng/mL.

For `CNC[C@H](O)c1ccc(O)c(O)c1` [Epinephrine IM Injection, epinephrine], the “median time to reach 100 pg/mL” value ([6]; AQST-109 at 4-minute residence, 0.3 mg IM injection) was 10 min, the Cmax ([6]; human, plasma, im, 0.3 mg, read-out: Arithmetic Mean Cmax) was 0.397 ng/mL and the Cmax ([6]; human, plasma, im, 0.3 mg, read-out: Geometric Cmax) was 0.351 ng/mL. It also gave an AUC(0-t) ([6]; human, plasma, im, 0.3 mg, AUC 0-20 minutes) of 0.023 ng·h/mL, an AUC(0-t) ([6]; human, plasma, im, 0.3 mg, AUC 0-30 minutes) of 0.0475 ng·h/mL and a Tmax ([6]; human, plasma, im, 0.3 mg, read-out: median time to maximum concentration (Tmax) (converted)) of 50 min. It also gave an AUC(0-t) ([7]; AUC 0-30 min, Repeat Dose (10 min)) of 0.067 ng·h/mL, a Cmax ([7]; Repeat Dose (10 min), geometric mean, read-out: Cmax) of 0.755 ng/mL and an AUC(0-t) ([7]; Repeat Dose (10 min), read-out: AUC0-45 min) of 0.181 ng·h/mL. It also gave an AUC(0-t) ([7]; Repeat Dose (10 min), read-out: AUC 0-t) of 1.3 ng·h/mL, a Tmax ([7]; Repeat Dose (10 min), read-out: Tmax (median) (converted)) of 50 min and a Tmax ([7]; Repeat Dose (10 min), read-out: Tmax Range) of 30 to 70 min. The Cmax ([7]; after one dose, read-out: maximum concentration, CMax) was 0.489 ng/mL, the Cmax ([7]; after two doses, second dose ten minutes after the first, read-out: maximum concentration, CMax) was 0.911 ng/mL and the Tmax ([7]; single dose administration, read-out: Tmax (median) (converted)) was 45 min. For the same compound, the “time after second dose administration until impact on PK profile” value ([7]; repeat dosing) was “over 20 min”, the Cardiac disorders ([8]; repeat dose: 24 mg (N = 23), 0.6 mg (N = 23)) was 1 (4.3) n (%) and the Palpitations ([8]; repeat dose: 24 mg, 0.6 mg) was 1 (4.3) n (%). The Ventricular extrasystoles ([8]; repeat dose: 24 mg, 0.6 mg) was 1 (4.3) n (%), the Cardiac disorders ([8]; single dose: 12 mg (N = 23), 0.3 mg (N = 23), EpiPen (N = 22)) was 1 (4.3) n (%) and the Palpitations [8, 10] was 1 (4.3) n (%). For the same compound, the Ventricular extrasystoles [8, 10] was 0 n (%), the Cmax ([9]; read-out: geometric mean Cmax) was 0.344 ng/mL and the Tmax ([9]; read-out: median Tmax (converted)) was 50 min.

In the case of `C=CCc1ccc(O)c(OC)c1` [100% Eugenol], the “Permeability Coefficient” value [2] is reported as 38.4 ×10⁻⁶ cm/s.

In the case of `CNC[C@H](O)c1ccc(OC(=O)C(C)(C)C)c(OC(=O)C(C)(C)C)c1` (racemic) [Dipi Solution, dipivefrin], the “% Boiavailability (DIPI AUC0-t)” value (in vivo) is reported as 128.5%, the “% Boiavailability (EPI AUC0-t)” value (in vivo) is reported as 131.0% and the “time until cleared from the system” value (in vivo; iv) is reported as ≤ 2 h. The AUC(0-t) (in vivo; iv, 1 mg) was 0.887 ng·h/mL, the Cmax (in vivo; iv, 1 mg) was 11.7 ng/mL and the “EPI Cmax (mean)” value (in vivo; iv, 1 mg) was 7.62 ng/mL. The “DIPI AUC0-t” value (in vivo; po, 6 mg) was 0, the “EPI Cmax (mean)” value (in vivo; po, 6 mg) was 0.28 ng/mL and the “EPI Tmax” value (in vivo; po, 6 mg) was 120 min. It also gave a Tmax (in vivo; po, 6 mg) of 0 min, an AUC(0-t) (in vivo; sc, 22 mg) of 25.1 ng·h/mL and a Cmax (in vivo; sc, 22 mg) of 15 ng/mL. The “EPI Cmax (mean)” value (in vivo; sc, 22 mg) was 12.5 ng/mL, the “EPI Tmax” value (in vivo; sc, 22 mg) was 180 min and the Tmax (in vivo; sc, 22 mg) was 5 min.
